Biological target: T1, PI5P4Kγ+ (Homo sapiens, UniProt Q8TBX8, D138G/D197E/E133P/E135D/E153T/E196G/G139A/N195G/S132L/S134N)
T1 sequence (Q8TBX8 with tags, fused parts or gaps INS131LPN/S132D/E133S/S134Q/E135A/G136R/D138G/G139A/E153T/N195G/E196G/D197E): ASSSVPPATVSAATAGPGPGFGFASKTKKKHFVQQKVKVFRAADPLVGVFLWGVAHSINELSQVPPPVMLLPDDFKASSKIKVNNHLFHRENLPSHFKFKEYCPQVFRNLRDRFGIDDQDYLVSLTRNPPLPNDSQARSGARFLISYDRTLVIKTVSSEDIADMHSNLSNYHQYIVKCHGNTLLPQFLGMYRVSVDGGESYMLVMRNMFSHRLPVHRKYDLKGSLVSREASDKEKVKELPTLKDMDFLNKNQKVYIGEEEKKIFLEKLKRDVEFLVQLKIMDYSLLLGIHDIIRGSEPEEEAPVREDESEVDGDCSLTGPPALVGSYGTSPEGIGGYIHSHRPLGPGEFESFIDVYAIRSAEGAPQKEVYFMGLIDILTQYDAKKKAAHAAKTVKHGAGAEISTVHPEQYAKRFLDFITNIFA
Assay: biochemical
Conditions: ADP-Glo pIC50 PI5P4Kγ+, Table S1, two decimals; asterisk not explained

SMILES	IC50 [nM]
CN(C)C(=O)c1cc2c(Nc3ccc(S(C)(=O)=O)cc3)ncnc2s1	562
CS(=O)(=O)c1ccc(Nc2ncnc3sc(-c4cnoc4)cc23)cc1	36.3
CS(=O)(=O)c1ccc(Nc2ncnc3sc(-c4ccc(F)cc4F)cc23)cc1	85.1
Cc1cc2c(Nc3ccc(N4CC(C)(C)CC4=O)cc3)ncnc2s1	132
O=C(NCc1cc2c(Nc3ccc(S(=O)(=O)C4CCCC4)cc3)ncnc2s1)c1ccc(C2(C(F)(F)F)N=N2)cc1	39.8
COc1cnccc1-c1cc2c(Nc3ccc(C4CC4)cc3)ncnc2s1	63.1
N#Cc1cc2c(Nc3ccc(S(=O)(=O)C4CCCC4)cc3)ncnc2s1	49
CSc1ccc(Nc2ncnc3sc(-c4cncnc4)cc23)cc1 [CSc1ccc(cc1)Nc1ncnc2sc(cc12)-c1cncnc1]	29.5
CC(=O)NCc1cc2c(Nc3ccc(S(=O)(=O)C4CCCC4)cc3)ncnc2s1	12.6
COc1cnccc1-c1cc2c(Nc3ccc(SC)cc3)ncnc2s1 [COc1cnccc1-c1cc2c(ncnc2s1)Nc1ccc(cc1)SC]	15.1
Cc1cc2c(Nc3ccc(S(=O)(=O)C4CC4)cc3)ncnc2s1	75.9
CSc1ccc(Nc2ncnc3cc(-c4cccnc4C)sc23)cc1 [CSc1ccc(cc1)Nc1ncnc2cc(sc12)-c1cccnc1C]	17
COc1cnccc1-c1cc2c(Nc3ccc(Cl)cc3)ncnc2s1 [COc1cnccc1-c1cc2c(ncnc2s1)Nc1ccc(cc1)Cl]	63.1
COc1cnccc1-c1cc2ncnc(Nc3ccc(SC)cc3)c2s1 [COc1cnccc1-c1cc2ncnc(c2s1)Nc1ccc(cc1)SC]	53.7

The remaining lines, values ahead:

IC50 [nM]	SMILES
214	COc1cc(Nc2ncnc3sc(C)cc23)ccc1N1CCCC1=O [COc1cc(ccc1N1CCCC1=O)Nc1ncnc2sc(cc12)C]
110	Cc1ncccc1-c1cc2c(Nc3ccc(C4CC4)cc3)ncnc2s1 [Compound 24]
1910	COc1ccc(Nc2ncnc3sc(-c4cccnc4C)cc23)cc1 [Compound 20]
8510	Cc1ccc(Nc2ncnc3sc(-c4cccnc4Cl)cc23)cc1C [Cc1ccc(cc1C)Nc1ncnc2sc(cc12)-c1cccnc1Cl]
2340	Cc1cccc(Nc2ncnc3sc(-c4cccnc4Cl)cc23)c1 [Cc1cccc(c1)Nc1ncnc2sc(cc12)-c1cccnc1Cl]
24.5	CSc1ccc(Nc2ncnc3sc(-c4c(C)noc4C)cc23)cc1 [Compound 30]
4370	Cc1ccc(Nc2ncnc3sc(-c4cccnc4C)cc23)c(C)c1 [Compound 19]
389	Cc1cc(Nc2ncnc3sc(-c4cccnc4Cl)cc23)ccc1Cl [Cc1cc(ccc1Cl)Nc1ncnc2sc(cc12)-c1cccnc1Cl]
8320	Cc1ccc(Nc2ncnc3sc(-c4cccnc4Cl)cc23)c(C)c1
85.1	COc1cnccc1-c1cc2c(Nc3ccc(C4CC4)cc3)ncnc2[nH]1
67.6	Clc1ncccc1-c1cc2c(Nc3ccc(C4CC4)cc3)ncnc2s1

Same assay, conditions: PI5P4Kγ+ pIC50, ADP-Glo; footnote a: inconsistent replicates, value shown is upper limit

IC50 [nM]	SMILES
100	Cc1ncccc1-c1cc2c(Nc3ccc(C4CC4)cc3)ncnc2s1 [Compound 24]
2000	COc1ccc(Nc2ncnc3sc(-c4cccnc4C)cc23)cc1 [Compound 20]
25.1	CSc1ccc(Nc2ncnc3sc(-c4c(C)noc4C)cc23)cc1 [Compound 30]
3980	Cc1ccc(Nc2ncnc3sc(-c4cccnc4C)cc23)c(C)c1 [Compound 19]

Biological target: T2, PI5P4Kα (Homo sapiens, UniProt P48426)
T2 sequence (P48426 1-406): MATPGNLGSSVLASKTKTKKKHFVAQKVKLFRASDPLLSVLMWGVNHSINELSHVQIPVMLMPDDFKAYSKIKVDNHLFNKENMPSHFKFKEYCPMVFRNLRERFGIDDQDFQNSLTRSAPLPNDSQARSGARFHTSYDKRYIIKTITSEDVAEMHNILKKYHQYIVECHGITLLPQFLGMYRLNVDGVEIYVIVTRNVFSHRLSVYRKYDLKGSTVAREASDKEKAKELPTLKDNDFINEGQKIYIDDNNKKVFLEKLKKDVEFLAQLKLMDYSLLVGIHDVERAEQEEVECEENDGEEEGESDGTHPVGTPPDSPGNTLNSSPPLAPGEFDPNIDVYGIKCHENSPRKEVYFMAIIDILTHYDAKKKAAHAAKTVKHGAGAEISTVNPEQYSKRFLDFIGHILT
Assay: biochemical
Conditions: ADP-Glo pIC50 PI5P4Kα, Table S1, two decimals; asterisk not explained

SMILES	IC50 [nM]
CN(C)C(=O)c1cc2c(Nc3ccc(S(C)(=O)=O)cc3)ncnc2s1	6920
CS(=O)(=O)c1ccc(Nc2ncnc3sc(-c4cnoc4)cc23)cc1	2190
CS(=O)(=O)c1ccc(Nc2ncnc3sc(-c4ccc(F)cc4F)cc23)cc1	1100
Cc1cc2c(Nc3ccc(N4CC(C)(C)CC4=O)cc3)ncnc2s1	1170
O=C(NCc1cc2c(Nc3ccc(S(=O)(=O)C4CCCC4)cc3)ncnc2s1)c1ccc(C2(C(F)(F)F)N=N2)cc1	5250
COc1cnccc1-c1cc2c(Nc3ccc(C4CC4)cc3)ncnc2s1	269
N#Cc1cc2c(Nc3ccc(S(=O)(=O)C4CCCC4)cc3)ncnc2s1	4680
CSc1ccc(Nc2ncnc3sc(-c4cncnc4)cc23)cc1 [CSc1ccc(cc1)Nc1ncnc2sc(cc12)-c1cncnc1]	234
CC(=O)NCc1cc2c(Nc3ccc(S(=O)(=O)C4CCCC4)cc3)ncnc2s1	4370
COc1cnccc1-c1cc2c(Nc3ccc(SC)cc3)ncnc2s1 [COc1cnccc1-c1cc2c(ncnc2s1)Nc1ccc(cc1)SC]	129
Cc1cc2c(Nc3ccc(S(=O)(=O)C4CC4)cc3)ncnc2s1	7760
CSc1ccc(Nc2ncnc3cc(-c4cccnc4C)sc23)cc1 [CSc1ccc(cc1)Nc1ncnc2cc(sc12)-c1cccnc1C]	77.6
COc1cnccc1-c1cc2c(Nc3ccc(Cl)cc3)ncnc2s1 [COc1cnccc1-c1cc2c(ncnc2s1)Nc1ccc(cc1)Cl]	1320
COc1cnccc1-c1cc2ncnc(Nc3ccc(SC)cc3)c2s1 [COc1cnccc1-c1cc2ncnc(c2s1)Nc1ccc(cc1)SC]	490

Now from value to compound:

IC50 [nM]	SMILES
7240	COc1cc(Nc2ncnc3sc(C)cc23)ccc1N1CCCC1=O [COc1cc(ccc1N1CCCC1=O)Nc1ncnc2sc(cc12)C]
490	Cc1ccc(Nc2ncnc3sc(-c4cccnc4Cl)cc23)cc1C [Cc1ccc(cc1C)Nc1ncnc2sc(cc12)-c1cccnc1Cl]
1450	Cc1cccc(Nc2ncnc3sc(-c4cccnc4Cl)cc23)c1 [Cc1cccc(c1)Nc1ncnc2sc(cc12)-c1cccnc1Cl]
2950	Cc1cc(Nc2ncnc3sc(-c4cccnc4Cl)cc23)ccc1Cl [Cc1cc(ccc1Cl)Nc1ncnc2sc(cc12)-c1cccnc1Cl]
2950	Cc1ccc(Nc2ncnc3sc(-c4cccnc4Cl)cc23)c(C)c1
240	COc1cnccc1-c1cc2c(Nc3ccc(C4CC4)cc3)ncnc2[nH]1
195	Clc1ncccc1-c1cc2c(Nc3ccc(C4CC4)cc3)ncnc2s1

Biological target: T2, PI5P4Kα
Assay: not given
Conditions: ADP-Glo; footnote a: inconsistent replicates, value shown is upper limit

PI5P4Kα pIC50	SMILES
6.6	Cc1ncccc1-c1cc2c(Nc3ccc(C4CC4)cc3)ncnc2s1 [Compound 24]
5.9	COc1ccc(Nc2ncnc3sc(-c4cccnc4C)cc23)cc1 [Compound 20]
6.8	CSc1ccc(Nc2ncnc3sc(-c4c(C)noc4C)cc23)cc1 [Compound 30]
5.5	Cc1ccc(Nc2ncnc3sc(-c4cccnc4C)cc23)c(C)c1 [Compound 19]

Same assay, conditions: Table S1, two decimals; asterisk not explained

ADP-Glo pIC50 PI5P4Kα	SMILES
6.62	Cc1ncccc1-c1cc2c(Nc3ccc(C4CC4)cc3)ncnc2s1 [Compound 24]
5.88	COc1ccc(Nc2ncnc3sc(-c4cccnc4C)cc23)cc1 [Compound 20]
6.81	CSc1ccc(Nc2ncnc3sc(-c4c(C)noc4C)cc23)cc1 [Compound 30]
5.48	Cc1ccc(Nc2ncnc3sc(-c4cccnc4C)cc23)c(C)c1 [Compound 19]

System: PI5P4Kγ+
Assay: not given
Conditions: ratio PI5P4Kα IC50 / PI5P4Kγ+ IC50, ADP-Glo

Fold-selectivity (α IC50/γ IC50)	SMILES
2.5	Cc1ncccc1-c1cc2c(Nc3ccc(C4CC4)cc3)ncnc2s1 [Compound 24]
0.69	COc1ccc(Nc2ncnc3sc(-c4cccnc4C)cc23)cc1 [Compound 20]
6.3	CSc1ccc(Nc2ncnc3sc(-c4c(C)noc4C)cc23)cc1 [Compound 30]
0.79	Cc1ccc(Nc2ncnc3sc(-c4cccnc4C)cc23)c(C)c1 [Compound 19]

Source: article PMC10583824, “The rational design of ARUK2007145, a dual inhibitor of the α and γ isoforms of the lipid kinase phosphatidylinositol 5-phosphate 4-kinase (PI5P4K)” (RSC Medicinal Chemistry, 2023)
